Laboratory results taken from patent US20240198337A1, “Bone Marrow on a Chip” (NEW YORK UNIVERSITY, priority 2021, published 2024).

How the values were obtained:
[1] = tested on: murine Ph+ B-ALL cells; test: Drug resistance testing: B-ALL cell viability in 3D hydrogel devices (Calcein-AM/DAPI); format: cell-based; details: NIL 1 μM, PRE 1 μM, VCR 0.1 μM; for viability of B-ALL cells in perivascular versus endosteal niche: 2-day treatment; for B-ALL eradication (viability): absence of niche cells; for B-ALL eradication (viability) / B-ALL drug-induced cell death (chemo-resistance): 48 hr; for B-ALL drug-induced cell death (chemo-resistance): presence of niche cells
Experimental: The outcome of drugs was defined by the viability of B-ALL cells as a cytotoxic end point after drug treatment. B-ALL cells were cultured alone or co-cultured with niche cells in 3D hydrogel devices for 24 hr, and then incubated with 1 μM nilotinib (NIL, Cayman Chemical), 1 μM prednisone (PRE, Sigma), and 0.1 μM vincristine (VCR, Sigma) for 48 hr. The cell viability was quantitatively determined by using Calcein-AM (Thermo Fischer Scientific) and DAPI, which respectively stained the live and dead cells. Briefly, cells were rinsed thrice with PBS and incubated with Calcein-AM and DAPI ([…] and 5 μg/mL in PBS or medium) solution for 30 min at 37° C., followed by a final rinse with PBS. Afterward, cells were observed under a fluorescence microscope, and cellular viability was quantitatively measured by counting the number of objects in the green (live cells) and red (dead cells) channels. Untreated groups of B-ALL cells were used as controls to benchmark the drug resistance of different groups.

[2] = tested on: murine B-ALL cells; test: B-ALL cell adhesion onto niche cells with or without adhesion blockade; format: cell-based; details: VLA-4 blockade; 24 hours on niche cell monolayer
Experimental: (FIG. 11A) Experimental setup for testing murine B-ALL cell adhesion onto niche cells [i.e. ECs (C166), MSCs (OP9), and osteoblasts (MC3T3)] with or without adhesion blockade. B-ALL cells were plated into the dishes with niche cell monolayer and cultured for 24 hours, followed by five times washing with warm PBS. The images were then taken with 20× objective. (FIG. 11B) Adhered B-ALL cells were manually counted and plotted as cell number per filed. Each condition has 3 replicates with >10 images being counted. One-way ANOVA followed by Tukey's post hoc test (n.s., not significant, *p<0.05, **p<0.01).

[3] = tested on: NF-κB; test: NF-κB activation (nuclear translocation) in B-ALL cells in Leukemia-on-a-Chip; format: cell-based, murine; details: B-ALL cells with niche cells
From the text: FIG. 8A through FIG. 8J depicts the results of niche cells promoting leukemia progression via cytokine and adhesive signaling. (FIG. 8A) The regional CXCR4 distribution on murine B-ALL cells cultured with or without niche cells. (FIG. 8B) The quantified result corresponding to (FIG. 8A). (FIG. 8C) Membrane-based ELISA analysis of CXCL12 expression level of niche cells (ECs and MSCs). (FIG. 8D) The quantified result corresponding to (FIG. 8C). (FIG. 8E) The representative image showing B-ALL cells co-localized with niche cells via VCAM-1/VLA-4 signaling. (FIG. 8F) The representative images showing nuclear translocation of NF-κB in B-ALL cells. (FIG. 8G) NF-κB activation in B-ALL cells with or without niche cells and under treatments with CXCR4 inhibitor, AMD3100 (AMD) and VLA-4 inhibitor, BIO5192 (BIO). The ratios were manually quantified from 3 experimental replicates (N>200). One-way ANOVA followed by Tukey's post hoc test. […] (FIG. 8I) The quantification of NF-κB activation in human NALM-6, 697, RS(4; 11), and UOCB1 blasts within their leukemia niches. The ratios were manually measured from 3 experimental replicates (N>150). (FIG. 8J) The quantification of NF-κB activation in patient-derived B-ALL blasts within engineered leukemia niches. The ratios for various B-ALL blasts were manually measured from 3 technical replicates (N>20). […]

[4] = tested on: murine B-ALL cells; test: Combinational drug regimens in the murine leukemic niche model; format: cell-based; details: 5 μg/mL AMD, 1 μg/mL BIO or 10 μM BAY combined with NIL, PRE or VCR for 48 hr
Experimental: The 3D biomimetic leukemic niche model was exploited to test the combinational drug regimens in vitro. Generally, the murine leukemic niche models were cultured for 24 hr after fabrication, then respectively administrated with various pharmaceuticals [i.e. 5 μg/mL AMD3100 (AMD), 1 μg/mL BIO5192 (BIO), and 10 μM BAY 11-7082 (BAY), correspondingly], and concomitantly treated with 1 μM NIL, 1 μM PRE or 0.1 μM VCR for 48 hr. The viability of B-ALL cells was measured by the DAPI staining as described above.
The following investigation concerned whether co-targeting niche-derived pro-survival signals (CXCR4/CXCL12, VCAM-1/VLA-4, and NF-κB signaling) using either CXCR4 inhibitor (AMD), VLA-4 inhibitor (BIO), or NF-κB inhibitor (BAY) could improve the responsiveness of B-ALL-targeting chemotherapeutics. B-ALL blasts and niche cells (containing ECs and MSCs) were co-cultured for 24 hr in the Leukemia-on-a-Chip, and then administered individual niche-targeting compounds in combination with either NIL, PRE or VCR for 48 hr, after which B-ALL cell viability was measured. […] The lack of response to VLA-4 treatment may be due to VLA-4 blockade broke the leukemia dormancy to compensate the B-ALL death.

[5] = tested on: murine Ph+ B-ALL cells; test: Drug resistance testing: B-ALL cell viability in 3D hydrogel devices (Calcein-AM/DAPI); format: cell-based; details: NF-κB blockade

## Cc1cn(-c2cc(NC(=O)c3ccc(C)c(Nc4nccc(-c5cccnc5)n4)c3)cc(C(F)(F)F)c2)cn1 [nilotinib]
[1]
  viability of B-ALL cells in perivascular versus endosteal niche: a stronger dormancy and chemo-resistance of B-ALL cells in the endosteal niche
  B-ALL eradication (viability): efficient B-ALL eradication
  B-ALL drug-induced cell death (chemo-resistance): chemo-resistance phenomenon was confirmed
[1]; listed as NIL
  B-ALL drug-induced cell death (chemo-resistance): partial rescue of drug-induced cell death

## Cc1ccccc1NC(=O)Nc1ccc(CC(=O)N(C)[C@@H](CC(C)C)C(=O)NCC[C@H](NC(=O)[C@@H]2CCCN2S(=O)(=O)c2cc(Cl)cc(Cl)c2)C(=O)O)cc1 [BIO5192]
[2]
  intercellular adhesion of B-ALL cells onto niche cells: significantly decrease the intercellular adhesion of B-ALL cells onto niche cells
[3]
  nuclear translocation of NF-κB in B-ALL cells: suppressed the nuclear translocation of NF-κB in B-ALL cells
[4]
  responsiveness of B-ALL blasts to tumor-targeting agents (B-ALL killing) on niche co-targeting: no significant effect on the responsiveness of B-ALL blasts to tumor-targeting agents

## Cc1ccc(S(=O)(=O)/C=C/C#N)cc1 [BAY 11-7082]
[4]
  responsiveness of B-ALL blasts to tumor-targeting agents (B-ALL killing) on niche co-targeting: significantly reversed the chemo-protective activity of niche cells
[5]; absence of niche cells
  B-ALL survival (cell viability): significantly decreased B-ALL survival
[5]; co-culture with niche cells
  B-ALL survival (cell viability): partially rescued B-ALL cell survival from BAY treatment

## C[C@]12C=CC(=O)C=C1CC[C@@H]1[C@@H]2C(=O)C[C@@]2(C)[C@H]1CC[C@]2(O)C(=O)CO [prednisone]
[1]
  viability of B-ALL cells in perivascular versus endosteal niche: a stronger dormancy and chemo-resistance of B-ALL cells in the endosteal niche
  B-ALL eradication (viability): efficient B-ALL eradication
  B-ALL drug-induced cell death (chemo-resistance): chemo-resistance phenomenon was confirmed
[1]; listed as PRE
  B-ALL drug-induced cell death (chemo-resistance): partial rescue of drug-induced cell death

## c1cc(CN2CCCNCCNCCCNCC2)ccc1CN1CCCNCCNCCCNCC1 [AMD3100]
[3]
  nuclear translocation of NF-κB in B-ALL cells: suppressed the nuclear translocation of NF-κB in B-ALL cells
[4]
  responsiveness of B-ALL blasts to tumor-targeting agents (B-ALL killing) on niche co-targeting: significantly reversed the chemo-protective activity of niche cells
